According to patent US8563559B2 (Rigel Pharmaceuticals, Inc., priority 2006, dated 2013):
pIC50: −log10 of the molar value.

Target: T1, Axl (Homo sapiens, UniProt P30530)
T1 construct: endogenous in cells; host or cells: HeLa
T1 sequence (P30530 26-894): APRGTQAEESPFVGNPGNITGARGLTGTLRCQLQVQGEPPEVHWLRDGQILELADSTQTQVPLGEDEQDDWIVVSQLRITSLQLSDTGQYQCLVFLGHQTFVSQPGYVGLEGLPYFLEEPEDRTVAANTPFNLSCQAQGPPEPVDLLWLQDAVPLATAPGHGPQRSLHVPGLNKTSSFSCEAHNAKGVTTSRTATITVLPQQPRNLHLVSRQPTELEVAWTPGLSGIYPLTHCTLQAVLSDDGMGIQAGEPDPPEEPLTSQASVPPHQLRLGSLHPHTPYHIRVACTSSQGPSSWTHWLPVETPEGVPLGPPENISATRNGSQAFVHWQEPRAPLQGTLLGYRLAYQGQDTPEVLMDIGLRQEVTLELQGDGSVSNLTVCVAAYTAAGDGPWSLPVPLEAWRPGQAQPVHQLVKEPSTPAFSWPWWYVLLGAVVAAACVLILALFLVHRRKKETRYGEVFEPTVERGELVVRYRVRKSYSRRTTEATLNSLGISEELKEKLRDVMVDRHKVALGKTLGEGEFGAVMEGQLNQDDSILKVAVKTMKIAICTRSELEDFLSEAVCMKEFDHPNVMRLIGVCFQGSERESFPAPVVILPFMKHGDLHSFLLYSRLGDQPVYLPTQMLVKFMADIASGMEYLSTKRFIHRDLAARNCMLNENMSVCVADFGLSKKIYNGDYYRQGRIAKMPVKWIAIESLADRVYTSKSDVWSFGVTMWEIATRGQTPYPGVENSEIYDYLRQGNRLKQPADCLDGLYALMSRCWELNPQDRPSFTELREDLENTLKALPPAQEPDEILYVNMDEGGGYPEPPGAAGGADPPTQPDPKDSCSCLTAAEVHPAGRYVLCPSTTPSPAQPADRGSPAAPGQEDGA
Experiment: Phospho-AKT in-cell Western assay (inhibition of Axl activity)
Assay type: cell-based
Conditions: Table 1, formula (Ia); Hela cells, Axl antibody cross-linking stimulation, phospho-Akt chemiluminescence normalized to relative cell number
Protocol: The compounds of the invention were tested in the following assay for their ability to inhibit Axl activity.
Phospho-AKT in-Cell Western Assay
• Cell culture plate: 96 well assay plate (Corning 3610), white, clear bottom, tissue-culture treated. • Cells: Hela cells. • Starvation medium: For Axl stimulation: 0.5% FCS (fetal calf serum) in DMEM, plus Axl/Fc (extracellular domain of AXL fused to immunoglobulin Fc region) (R&D, 154-AL) 500 ng/mL. • For EGF (epidermal growth factor) stimulation: 0.5% FCS in DMEM (Dulbecco's modified Eagles medium). • Poly-L-Lysine 0.01% solution (the working solution): 10 μg/ml, dilute In PBS (phosphate buffered saline). • Axl antibody cross-linking: • 1st: Mouse anti-Axl (R&D, MAB154). • 2nd: Biotin-SP-conjugated AffiniPure goat anti-mouse IgG (H+L) (Jackson ImmunoResearch #115-065-003). • Fixing buffer: 4% formaldehyde in PBS. • Wash buffer: 0.1% TritonX-100 in PBS. • Quenching buffer: 3% H2O2, 0.1% Azide in wash buffer, Azide and hydrogen peroxide 1(H2O2) are added fresh. • Blocking buffer: 5% BSA in TBST (tris buffered saline plus 0.1% Tween 20). • Primary antibody: Rabbit anti-human Phospho-Akt antibody (Cell Signaling 9271): 1×250 diluted in blocking buffer. • Secondary antibody: HRP (horse radish peroxidase)-conjugated Goat anti-Rabbit secondary, stock solution: Jackson ImmunoResearch (Goat anti-Rabbit HRP, #111-035-144) 1:1 diluted in glycerol, store at −20° C. The working solution: 1×2000 dilution of stock in blocking buffer. • Chemiluminescent working solution (Pierce, 37030): SuperSignal ELISA (enzyme linked immunosorbant assay) Pico Chemiluminescent substrate. • Crystal Violet solution: Stock: 2.5% Crystal violet in methanol, filtered and kept at ambient temperature. The working solution: dilute the stock 1:20 with PBS immediately before use. • 10% SDS: working solution: 5% SDS (sodium dodecylsulfate), diluted in PBS Methods: Day 1:
A 96 well TC (tissue culture treated) plate was coated with 10 μg/mL poly-L-Lysine at 37° C. for 30 min, washed twice with PBS, and air-dried for 5 minutes before cells were added. Hela cells were seeded at 10,000 cells/well and the cells were starved in 100 μL starvation medium containing Axl/Fc for 24 hrs.
The cells were pre-treated with test compounds by adding 100 μL of 2× test compound to the starvation medium on the cells. The cells were incubated at 37° C. for 1 hr before stimulation.
The cells were stimulated by Axl-antibody cross-linking as follows: A 5×1st/2nd Axl antibody mixture was made (37.5 μg/mL 1st/100 μg/mL 2nd) in starvation medium and nutated at 4° C. with thorough mixing for 1-2 hours for clustering. The resulting mix was warmed to 37° C. 50 μL of 5×Axl 1st/2nd of antibody cluster was added to the cells and the cells were incubated at 37° C. for 5 min.
After 5 minutes stimulation, the plate was flicked to remove medium and the plate was tapped onto paper towels. Formaldehyde (4.0% in PBS, 100 μL) was added to fix the cells and the cells were incubated at ambient temperature for 20 min without shaking.
The cells were washed with a plate washer buffer to remove the formaldehyde solution. The plate was flicked to removed excess wash buffer and tapped onto paper towels. Quenching buffer (100 μL) was added to each well and the cells were incubated at ambient temperature for 20 minutes without shaking.
The cells were washed with a plate washer buffer to remove the quenching buffer. Blocking buffer (100 μL) was added and the cells were incubated at ambient temperature for at least an hour with gentle shaking.
The cells were washed with a plate washer buffer and diluted primary antibody (50 μL) was added to each well (blocking buffer was added to the negative control wells instead). The plates were incubated overnight at 4° C. with gentle shaking.
The wash buffer was removed, diluted secondary antibody (100 μL) was added, and the cells were incubated at ambient temperature for 1 hour with gentle shaking. […]

Row | Compound | pIC50
1 | CC(C)NC(=O)[C@H]1C[C@H]2C[C@H](C2(C)C)[C@@]1(C)Nc1nc(Nc2ccc(OCCN3CCCC3)cc2)ncc1Cl [Compound 63, (1R,2R,3S,5R)-2-(5-chloro-2-(4-(2-(pyrrolidin-1-yl)ethoxy)phenylamino)pyrimidin-4-ylamino)-N-(1-methylethyl)-2,6,6-trimethylbicyclo[3.1.1]heptane-3-carboxamide] | > 6.00
2 | CNC(=O)[C@H]1C[C@H]2C[C@H](C2(C)C)[C@@]1(C)Nc1nc(Nc2ccc(N3CCOCC3)cc2)ncc1Cl [Compound 2, (1R,2R,3S,5R)-2-(5-chloro-2-(4-morpholinophenylamino)pyrimidin-4-ylamino)-N,2,6,6-tetramethylbicyclo[3.1.1]heptane-3-carboxamide] | 5.00 to 6.00
3 | CNC(=O)[C@H]1C[C@H]2C[C@H](C2(C)C)[C@@]1(C)Nc1nc(Nc2ccc(C(=O)N3CCN(C)CC3)c(Cl)c2)ncc1Cl [Compound 14] | > 6.00
4 | CNC(=O)[C@H]1C[C@H]2C[C@H](C2(C)C)[C@@]1(C)Nc1nc(Nc2ccc(N3CCC(N4CCC(C)CC4)CC3)c(F)c2)ncc1F [Compound 55, (1R,2R,3S,5R)-2-(5-fluoro-2-(3-fluoro-4-(4-(4-methylpiperidin-1-yl)piperidin-1-yl)phenylamino)pyrimidin-4-ylamino)-N,2,6,6-tetramethylbicyclo[3.1.1]heptane-3-carboxamide] | > 6.00
5 | CNC(=O)[C@H]1C[C@H]2C[C@H](C2(C)C)[C@@]1(C)Nc1nc(Nc2ccc(N3CCN(S(C)(=O)=O)CC3)c(Cl)c2)ncc1F [Compound 36, (1R,2R,3S,5R)-2-(5-fluoro-2-(3-chloro-4-(4-methylsulfonylpiperazin-1-yl)phenylamino)pyrimidin-4-ylamino)-N,2,6,6-tetramethylbicyclo[3.1.1]heptane-3-carboxamide] | 5.00 to 6.00
6 | CC1(C)[C@H]2C[C@H](C(N)=O)[C@](C)(Nc3nc(Nc4ccc(OCCN5CCCC5)c(F)c4)ncc3Cl)[C@@H]1C2 [Compound 30, (1R,2R,3S,5R)-2-(5-chloro-2-(3-fluoro-4-(2-(pyrrolidin-1-yl)ethoxy)phenylamino)pyrimidin-4-ylamino)-2,6,6-trimethylbicyclo[3.1.1]heptane-3-carboxamide] | > 6.00
7 | CNC(=O)[C@H]1C[C@H]2C[C@H](C2(C)C)[C@@]1(C)Nc1nc(Nc2ccc(C3CCN(C)CC3)cc2)ncc1Cl [Compound 12, (1R,2R,3S,5R)-2-(5-chloro-2-(4-(1-methylpiperidin-4-yl)phenylamino)pyrimidin-4-ylamino)-N,2,6,6-tetramethylbicyclo[3.1.1]heptane-3-carboxamide] | > 6.00
8 | CNC(=O)[C@H]1C[C@H]2C[C@H](C2(C)C)[C@@]1(C)Nc1nc(Nc2ccc(C(=O)N3CCN(C4CCCCC4)CC3)cc2)ncc1Cl [Compound 10, (1R,2R,3S,5R)-2-(5-chloro-2-(4-(4-cyclohexylpiperazine-1-carbonyl)phenylamino)pyrimidin-4-ylamino)-N,2,6,6-tetramethylbicyclo[3.1.1]heptane-3-carboxamide] | > 6.00
9 | CCN(CC)C1CCN(c2ccc(Nc3ncc(Cl)c(N[C@@]4(C)[C@@H](C(=O)NC5CC5)C[C@H]5C[C@@H]4C5(C)C)n3)cc2F)CC1 [Compound 62, (1R,2R,3S,5R)-2-(5-chloro-2-(3-fluoro-4-(4-(diethylamino)piperidin-1-yl)phenylamino)pyrimidin-4-ylamino)-N-cyclopropyl-2,6,6-trimethylbicyclo[3.1.1]heptane-3-carboxamide] | > 6.00
10 | CNC(=O)[C@H]1C[C@H]2C[C@H](C2(C)C)[C@@]1(C)Nc1nc(Nc2ccc(N3CCN(C)CC3)c(F)c2)ncc1C [Compound 43, (1R,2R,3S,5R)-2-(5-methyl-2-(3-fluoro-4-(4-methylpiperazin-1-yl)phenylamino)pyrimidin-4-ylamino)-N,2,6,6-tetramethylbicyclo[3.1.1]heptane-3-carboxamide] | > 6.00
11 | CNC(=O)[C@H]1C[C@H]2C[C@H](C2(C)C)[C@@]1(C)Nc1nc(Nc2ccc(N3CCC(N4CCN(C)CC4)CC3)c(F)c2)ncc1Cl [Compound 31, (1R,2R,3S,5R)-2-(5-chloro-2-(3-fluoro-4-(4-(4-methylpiperazin-1-yl)piperidin-1-yl)phenylamino)pyrimidin-4-ylamino)-N,2,6,6-tetramethylbicyclo[3.1.1]heptane-3-carboxamide] | > 6.00
12 | CNC(=O)[C@H]1C[C@H]2C[C@H](C2(C)C)[C@@]1(C)Nc1nc(Nc2ccc(N3CCN(C(C)=O)CC3)c(Cl)c2)ncc1F [Compound 38, (1R,2R,3S,5R)-2-(5-fluoro-2-(3-chloro-4-(4-acetylpiperazin-1-yl)phenylamino)pyrimidin-4-ylamino)-N,2,6,6-tetramethylbicyclo[3.1.1]heptane-3-carboxamide] | 5.00 to 6.00
13 | CNC(=O)[C@H]1C[C@H]2C[C@H](C2(C)C)[C@@]1(C)Nc1nc(Nc2ccc(N3CCN(C)CC3)c(F)c2)ncc1Cl [Compound 4, (1R,2R,3S,5R)-2-(5-chloro-2-(3-fluoro-4-(4-methylpiperazin-1-yl)phenylamino)pyrimidin-4-ylamino)-N,2,6,6-tetramethylbicyclo[3.1.1]heptane-3-carboxamide] | > 6.00

Same assay, conditions: Table 3, formula (Ic); Hela cells, Axl antibody cross-linking stimulation, phospho-Akt chemiluminescence normalized to relative cell number

Row | Compound | pIC50
14 | CNC(=O)[C@H]1C[C@H]2C[C@H](C2(C)C)[C@@]1(C)Nc1nc(Nc2ccc3c(c2)OCCN3CCN2CCOCC2)ncc1F [Compound 59, (1R,2R,3S,5R)-2-(5-fluoro-2-((3,4-dihydro-4-(2-(morpholin-4-yl)ethyl)-2H-benzo[b][1,4]oxazin-7-yl)amino)pyrimidin-4-ylamino)-N,2,6,6-tetramethylbicyclo[3.1.1]heptane-3-carboxamide] | 5.00 to 6.00
15 | CNC(=O)[C@H]1C[C@H]2C[C@H](C2(C)C)[C@@]1(C)Nc1nc(Nc2ccc3c(c2)N(CCN(C)C)CCO3)ncc1Cl [Compound 50, (1R,2R,3S,5R)-2-(5-chloro-2-((3,4-dihydro-4-(2-(dimethylamino)ethyl)-2H-benzo[b][1,4]oxazin-6-yl)amino)pyrimidin-4-ylamino)-N,2,6,6-tetramethylbicyclo[3.1.1]heptane-3-carboxamide] | 5.00 to 6.00
